How the values were obtained:
Format in all cases: cell-based, human
[1] = test system: LN443 cells; assay: STS-induced DNA fragmentation (sub-G1, FACS) in LN443 cells; conditions: LN443, 2.0 μM STS; control siRNA about 40 percent
Description: (§1) LNZ308 and LN443 glioma cell lines transfected with control siRNA, Bcl2L12-targeting siRNA #4, or Bcl2L12-targeting siRNA #5 were treated with 0, 0.2, 0.5, 1.0, or 2.0 μM STS. DNA-fragmentation was assessed by quantifying sub-G1 peaks using FACS analysis. siRNA-mediated knockdown of Bcl2L12 polypeptide sensitized the glioma cell lines to STS-induced apoptosis. […] The maximum percent DNA fragmentation was about 30 percent, 45 percent, and 55 percent in LNZ308 cells transfected with control siRNA, siRNA #4, or siRNA #5, respectively, and treated with 2.0 μM STS (FIG. 10B). […] The maximum percent DNA fragmentation was about 40 percent, 60 percent, and 75 percent in LN443 cells transfected with control siRNA, siRNA #4, or siRNA #5, respectively, and treated with 2.0 μM STS (FIG. 10C).

[2] = test system: Bcl2L12 polypeptide; assay: Endogenous Bcl2L12 polypeptide expression in U87MG cells (Western blot, immunofluorescence); conditions: 48 hours post transfection, anti-L12-1 Western blot
Description: Down-regulation of Bcl2L12 polypeptide expression via RNA interference was assessed in U87MG cells. Briefly, U87MG cells were co-transfected (1:10 ratio) with 0.5 μg of vector encoding GFP and 5 μg of either pSHAG-Control, pSHAG-Bcl2L12-A, pSHAG-Bcl2L12-B, or pSHAG-Bcl2L12-A+-B. Once transfected, the cells expressing GFP were sorted out by FACS analysis. […] The FACS-sorted cells were assessed for Bcl2L12 polypeptide expression. […] The FACS-sorted cells also were seeded in 24-well plates at a density of 1×10^5 cells, grown in 10% FBS-DMEM, and counted every day for three days.
In another experiment, total cellular lysates of U87MG cells transfected with control siRNA, Bcl2L12-targeting siRNA #4, or Bcl2L12-targeting siRNA #5 were harvested 48 hours post transfection and subjected to western blot analysis using the anti-L12-1 antibody (1 μg/mL).
The following experiments were performed to characterize the anti-Bcl2L12 polypeptide antibodies. U87MG cells stably expressing control or Bcl2L12-targeting shRNA (shL12-1) were subjected to deconvolution immunofluorescence microscopy using the anti-L12-2 antiserum. Cells were counterstained with DAPI. […]
The potential anti-oncogenic impact of Bcl2L12 polypeptide knockdown was assessed in the U87MG human glioma model system. […] Bcl2L12 polypeptide expression was analyzed by western blotting using the anti-L12-1 antibody. […]

[3] = test system: LNZ308 cells; assay: STS-induced DNA fragmentation (sub-G1, FACS) in LNZ308 cells; conditions: LNZ308, 2.0 μM STS; control siRNA about 30 percent
Description: as §1
LNZ308 cells co-transfected with pcDNA3-GFP and either pSHAG-A or pSHAG-B were treated with 0.1 or 0.5 μM of STS for 24 hours, and DNA fragmentation was assessed.

[4] = test system: caspases 2, 3/7, 6, 8, and 9; assay: Caspase activity profile with fluorogenic peptide substrates in LNZ308 cells; conditions: LNZ308, STS 24 hours
Description: LNZ308 cells were transfected with control or siRNA oligonucleotide #5, and treated with STS for 24 hours. Subsequently, caspase activity was profiled using caspase-specific fluorogenic peptide substrates assessing the activity status of caspases 2, 3/7, 6, 8, and 9.

[5] = test system: pro-caspase-7; assay: Anti-L12-2 immunoprecipitation from U87MG cells, Western blot for caspase-7; conditions: anti-L12-2 immunoprecipitates
Description: To define further the molecular actions of Bcl2L12 polypeptides, the physical interactions with key post-mitochondrial apoptosis signaling molecules were assessed. Anti-L12-2 immunoprecipitates from lysates of LNZ308, U87MG, and 293T cells were subjected to western blot analysis for procaspases 7 and 3 and cytochrome c. Briefly, cells were lysed in IP buffer. Cleared supernatants were incubated with prebleed serum (8 μl) coupled to Protein A-sepharose 4B beads (Sigma) for 1 hour and subsequently with anti-L12-2 antiserum (8 μl) for 1 to 2 hours. For western blot analyses, polypeptides were separated by 4-12% SDS-PAGE, transferred to Hybond PVDF membranes (Amersham), blocked with 5% milk in phosphate-buffered saline with 0.05% Tween 20 (PBS/Tween) for 1 hour, washed with PBS/Tween and incubated with anti-cytochrome c antibodies (0.5 μg/ml; BD Pharmingen), anti-caspase-7 antibodies (0.5 μg/ml, BD Pharmingen), or anti-caspase-3 anitbodies (0.25 μg/ml, BD Transduction Laboratories) in PBS/Tween 20 with 5% milk. The blots were washed with PBS/Tween and developed with goat anti-rabbit IgG (1:10,000) or with goat anti-mouse antibodies (1:10,000) (Pierce) in 5% milk PBS/Tween. […] 1/40 of the lysate used for the immunoprecipitation was loaded to quantify the amount of co-immunoprecipitated caspase-7. […]

Row | Substance | maximum percent DNA fragmentation [1] [%] | Bcl2L12 polypeptide levels [2] | maximum percent DNA fragmentation [3] [%] | caspase activity [4] | co-immunoprecipated pro-caspase-7 [5]
1 | siRNA #4: Bcl2L12-targeting siRNA oligonucleotide 5′-AAGCUGGUCCGCCUGUCCU-3′; SEQ ID NO:6 (chemistry not given here) | ~60 | significant reduction | ~45 |  | 
2 | siRNA #5: Bcl2L12-targeting siRNA oligonucleotide 5′-UGGUGGAGCUGUUCUGUAG-3′; SEQ ID NO:7 (chemistry not given here) | ~75 | significant reduction | ~55 | enhanced caspase activity | significant decrease

From patent US7595158B2, “Bcl2L12 polypeptide activators and inhibitors” (Dana-Farber Cancer Institute, Inc., priority 2003, dated 2009)
